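Results reflect a 48-hour exposure of cells in 96-well plates to compound at five concentrations. GI50: concentration for 50% inhibition of growth. TGI marks complete inhibition of growth.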
Tests used:
Experiment in all cases: NCI anticancer screen, dose series, 48 h
[1] = test system: EKVX NSCLC
[2] = test system: HCC-2998 colon
[3] = test system: HCT-15 colon
[4] = test system: HOP-62 NSCLC
[5] = test system: HOP-92 NSCLC
[6] = test system: HT29 colon
[7] = test system: UACC-257 melanoma
[8] = test system: RXF 393 renal
[9] = test system: BT-549 breast
[10] = test system: HS 578T breast

| Compound | TGI [1] [µM] | TGI [2] [µM] | TGI [3] [µM] | TGI [4] [µM] | TGI [5] [µM] | TGI [6] [µM] | TGI [7] [µM] | TGI [8] [µM] | GI50 [9] [µM] | TGI [9] [µM] | GI50 [1] [µM] | GI50 [3] [µM] | GI50 [4] [µM] | GI50 [10] [µM] | TGI [10] [µM] | GI50 [6] [µM] | GI50 [8] [µM] | GI50 [7] [µM] | GI50 [2] [µM] | GI50 [5] [µM] |
| --- | --- | --- | --- | --- | --- | --- | --- | --- | --- | --- | --- | --- | --- | --- | --- | --- | --- | --- | --- | --- |
| CC12C(=O)N(CCN)C(=O)C1C1c3ccccc3C2c2ccccc21 (stereo unspecified) | > 100 | > 100 | > 100 | > 100 | 98.4 | > 100 | > 100 |  |  |  |  |  |  |  |  |  |  |  |  |  |
| O=C1CCC(=O)C(C(=O)CCC(=O)Nc2cccc(Cl)c2)C1 (stereo unspecified) | > 100 | > 100 | > 100 | > 100 | > 100 | > 100 | > 100 | > 100 |  |  |  |  |  |  |  |  |  |  |  |  |
| Cc1sc(/N=C2/NC(=O)CS2)nc1-c1nc(/N=C2/NC(=O)CS2)sc1C | > 50 |  | > 50 | > 50 |  | > 50 | > 50 | > 50 | > 50 | > 50 | 1.33 | > 50 | 35.2 | 2.17 | 36.3 | 32.2 | > 50 | > 50 |  |  |
| CS[C@@]1(C(=O)Nc2ccc3[nH]nc(-c4ccc(OC(C)C)nc4)c3c2)CCN(CC(=O)N2CC=C(c3ccc(-c4ncn(C)n4)cc3)CC2)C1 |  | > 100 | > 100 | > 100 | 1.66 | > 100 |  |  | 9.43 | > 100 |  | 2.27 | 0.378 |  |  | 0.0368 |  |  | 0.131 | 0.228 |
| CC12OC3CC(O1)C1(C=O)C4CCC5(C)C(c6ccc(=O)oc6)CCC5(O)C4CCC1(C3)O2 (stereo unspecified) |  | 2 | 0.648 | 0.348 | 1.71 | 1.3 | 0.774 | 0.256 |  |  |  |  |  |  |  |  |  |  |  |  |
| CC(C)NC(=O)O/N=C1\CCC2[C@@H]3CC=C4C[C@@H](OC(=O)NC(C)C)CC[C@]4(C)C3CC[C@]12C (stereo partly specified) | 3.42 | 5.06 | 3.08 | > 34 | 5.02 | 8.87 | 2.4 | 3.54 |  |  |  |  |  |  |  |  |  |  |  |  |
| CC1=NN(c2ccccc2)C(=O)C1N=Nc1ccc(Br)c(C)c1 (stereo unspecified) | > 100 | > 100 | > 100 | > 100 | > 100 | > 100 | > 100 | > 100 |  |  |  |  |  |  |  |  |  |  |  |  |
| CCS/C(Nc1ccccc1)=C(\C#N)C(=O)N/N=C/c1ccc(Cl)cc1Cl | > 100 | > 100 | > 100 | > 100 |  | > 100 | > 100 | 8.66 | 2.8 | > 100 | 5.09 | 2.9 | 3.66 | 2.74 | 98.7 | 3.7 | 2.06 | 25.7 | 5.47 |  |
| CC(=O)N[C@@H](Cc1ccc(OP(=O)(O)O)cc1)C(=O)N[C@H]1CCC(=O)N2CCC[C@@H](C(=O)NCc3ccc(O)cc3)N2C1=O |  | > 25 | > 25 | > 25 |  | > 25 | > 25 | > 25 | > 25 | > 25 |  | > 25 | > 25 | > 25 | > 25 | > 25 | > 25 | > 25 | > 25 |  |
| CCc1oc2ccc(OC)c3c2c1C=CC=C3 | > 100 | > 100 | > 100 | > 100 |  | > 100 | > 100 | > 100 |  |  |  |  |  |  |  |  |  |  |  |  |
| OC1C2C=CCC1CCC2 (stereo unspecified) | > 100 |  |  | > 100 | > 100 | > 100 | > 100 | > 100 |  |  |  |  |  |  |  |  |  |  |  |  |
| CCC[CH2][Sn]1([CH2]CCC)[O]C(=O)c2cc(C)ccc2[O]1 | 1.94 | 1.98 | 1.45 |  | 1.65 | 2.56 | 1.56 | 0.555 |  |  | 0.579 | 0.446 |  |  |  | 1.24 | 0.283 | 0.419 | 0.67 | 0.327 |
| C[C@@H](Oc1cc(-c2cnn(C3CC4(CCCNC4)C3)c2)cnc1N)c1c(Cl)ccc(F)c1Cl (stereo partly specified) |  | 3.14 | 3.16 | 4.92 | 3.42 | 2.3 | 2.88 | 2.62 | 1.95 | 3.72 |  | 1.3 | 1.21 | 1.63 | 4.47 | 0.607 | 1.28 | 1.45 | 1.51 | 0.807 |
| CC[O-].CC[O-].O=C([CH-]C(=O)c1ccccc1)c1ccccc1.O=C([CH-]C(=O)c1ccccc1)c1ccccc1.[Ti+4] | > 100 | > 100 | > 100 | > 100 | > 100 | > 100 | > 100 | > 100 |  |  | > 100 | > 100 | > 100 |  |  | > 100 | 39.1 | > 100 | > 100 | 44.3 |
| Cc1cc2c(cc1C)[n+]([O-])c(-c1c(Cl)cccc1Cl)c(N)[n+]2[O-] | > 100 | > 100 | > 100 | 96.8 | > 100 | > 100 | 83.6 |  |  |  |  |  |  |  |  |  |  |  |  |  |
| CCOC(=O)C(Cc1ccc(OC)cc1)C(=O)OCC | 23.7 | 12.4 | 19.4 | 22.6 | 30.4 | 25.4 | 16.3 | 7.02 | 3.25 | 13.5 | 5.84 | 3.77 | 9.51 |  |  | 4.15 | 2.61 | 3.31 | 4.81 | 6.93 |
| Cc1cc(C)c2[s+]snc2c1 | > 100 | > 100 |  | > 100 |  | > 100 | > 100 | 91.6 |  |  |  |  |  |  |  |  |  |  |  |  |
| N#Cc1c(Oc2ccc(F)c(NC(=O)Cc3cccc(C(F)(F)F)c3)c2)ccc2nc(NC(=O)C3CC3)sc12 |  | > 100 | > 100 | > 100 | 2.19 | > 100 | 0.203 | 5.39 | 2.71 | > 100 |  | 0.261 | 0.472 | 0.534 | 3.33 | 0.0533 | 1.31 | 0.0253 | 0.581 | 0.278 |
| C[C@]12CCCC(=O)C1C[C@H](C(=O)O)CC2 (stereo partly specified) |  | > 100 | > 100 | > 100 | > 100 | > 100 | > 100 |  |  |  |  |  |  |  |  |  |  |  |  |  |

Reference: PubChem BioAssay (NCI)
